# According to patent publication US20100292205A1, “Pyrimidone Compounds As GSK-3 Inhibitors” (PFIZER INC., priority 2006, published 2010):
# pIC50: −log10 of the molar value.
# Target: T1, Recombinant human GSK3β (Homo sapiens, UniProt P49841)
# T1 construct: His-tag; made in house; host or cells: Sf9 insect cells / baculovirus
# Assay: GSK-3β (Glycogen Synthase Kinase) cell free enzyme assay
# Type: biochemical
# Conditions: 1 μM; GSK-3β cell free enzyme assay; Examples 42-60; read-out: Percent inhibition at 1 μM
# Experimental: Assay Protocol for GSK-3β (Glycogen Synthase Kinase) in a Cell Free Enzyme Assay
# Recombinant human GSK3β was expressed in SF9/Baculo virus cells. His-tag protein was purified by affinity chromatography to a Ni-NTA Superflow column. Enzyme activity was assayed as the incorporation of [33P] from the gamma phosphate of [33P]ATP (PerkinElmer) into biotinylated peptide substrate bio-LC-S-R-H-S-S-P-H-Q-pS-E-D-E-E-E-OH (Anaspec). Reactions were carried out in a buffer containing 8 mM MOPS (pH 7.0), 10 mM Magnesium Acetate, 0.2 mM EDTA, 1 mM DTT and 2 uM cold ATP. The 33P-ATP was added for 0.025 uCi/well (120 uL) and the final concentration of substrate was 1.0 uM. Enzyme was preincubated with test agent for 30 minutes at room temperature followed by initiation of the reaction by the addition of substrate mix. Incubations were carried out at RT for 60 min. Reactions were stopped by addition of 0.66 volume of buffer containing: 12.5 mM EDTA, 0.25% Triton-X 100, 125 uM ATP, and 6.2 mg/ml streptavidin coated SPA beads (Amersham) in PBS without Ca or Mg. Radioactivity associated with the beads was quantified by scintillation counting of CPM in a Trilux counter (PerkinElmer).
# Examples 42 to 60 were prepared using the analogous procedure described to prepare Example 41, substituting the appropriate starting material (Examples 1 to 35) and coupling with the appropriate acid. The assay protocol used is the percent inhibition at 1 μM for GSK-3β in the cell free enzyme assay described above.
# T1 sequence (P49841 whole entry): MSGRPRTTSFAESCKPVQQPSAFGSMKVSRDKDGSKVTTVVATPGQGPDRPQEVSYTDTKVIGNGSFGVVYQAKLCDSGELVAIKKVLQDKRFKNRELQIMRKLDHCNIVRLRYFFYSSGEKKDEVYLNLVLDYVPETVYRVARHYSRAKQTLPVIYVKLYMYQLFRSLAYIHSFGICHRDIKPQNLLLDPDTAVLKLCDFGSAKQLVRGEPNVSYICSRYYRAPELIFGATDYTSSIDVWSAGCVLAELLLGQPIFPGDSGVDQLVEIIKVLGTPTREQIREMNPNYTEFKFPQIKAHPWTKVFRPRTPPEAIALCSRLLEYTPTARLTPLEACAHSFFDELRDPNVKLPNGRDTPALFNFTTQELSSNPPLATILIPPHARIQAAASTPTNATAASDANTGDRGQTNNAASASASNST
row,inhibition at 1 µM,SMILES
1,84%,"CC(=O)N1CCCC(Nc2nc(-c3ccncc3)cc(=O)n2C)CC1 (stereo not shown) [Example 43, 2-[(1-Acetylazepan-4-yl)amino]-3-methyl-6-pyridin-4-ylpyrimidin-4(3H)-one]"
2,39%,"CC(=O)N1CCC(Nc2nc(-c3ccncc3)cc(=O)n2C)C1 (stereo not shown) [Example 45, 2-[(1-Acetylpyrrolidin-3-yl)amino]-3-methyl-6-pyridin-4-ylpyrimidin-4(3H)-one]"
3,51%,"CC(=O)N1CCCCC(Nc2nc(-c3ccncc3)cc(=O)n2C)C1 (stereo not shown) [Example 46, 2-[(1-Acetylazepan-3-yl)amino]-3-methyl-6-pyridin-4-ylpyrimidin-4(3H)-one]"
4,44%,"CC(=O)N1CCC(Nc2nc(-c3ccncc3)cc(=O)n2C)CC1 [Example 47, 2-[(1-Acetylpiperidin-4-yl)amino]-3-methyl-6-pyridin-4-ylpyrimidin-4(3H)-one]"
5,55%,"CC(=O)N1CCCC(Nc2nc(-c3ccncc3)cc(=O)n2C)C1 (stereo not shown) [Example 48, 2-[(1-Acetylpiperidin-3-yl)amino]-3-methyl-6-pyridin-4-ylpyrimidin-4(3H)-one]"
6,75%,"CC(=O)N1C[C@@H]2[C@H](C1)[C@H]2Nc1nc(-c2ccncc2)cc(=O)n1C [Example 49, 2-{[(1R,5S,6s)-3-Acetyl-3-azabicyclo[3.1.0]hex-6-yl]amino}-3-methyl-6-pyridin-4-ylpyrimidin-4(3H)-one]"
7,78%,"CC(=O)N1C[C@H](F)[C@H](Nc2nc(-c3ccncc3)cc(=O)n2C)C1 [Example 51, 2-{[(3R,4S)-1-Acetyl-4-fluoropyrrolidin-3-yl]amino}-3-methyl-6-pyridin-4-ylpyrimidin-4(3H)-one]"
8,51%,"CC(=O)N1CCC(N(C)c2nc(-c3ccncc3)cc(=O)n2C)C1 (stereo not shown) [Example 52, 2-[(1-Acetylpyrrolidin-3-yl)(methyl)amino]-3-methyl-6-pyridin-4-ylpyrimidin-4(3H)-one]"
9,79%,"CC(=O)N1CCCC(N(C)c2nc(-c3ccncc3)cc(=O)n2C)CC1 (stereo not shown) [Example 53, 2-[(1-Acetylazepan-4-yl)(methyl)amino]-3-methyl-6-pyridin-4-ylpyrimidin-4(3H)-one]"
10,64%,"CCN(c1nc(-c2ccncc2)cc(=O)n1C)C1CCN(C(C)=O)C1 (stereo not shown) [Example 54, 2-[(1-Acetylpyrrolidin-3-yl)(ethyl)amino]-3-methyl-6-pyridin-4-ylpyrimidin-4(3H)-one]"
11,71%,"CC(=O)N1CC[C@@]2(C)C[C@H](N(C)c3nc(-c4ccncc4)cc(=O)n3C)CC[C@@H]12 [Example 55, 2-{[(3a,S5,R7,aR)-1-Acetyl-3a-methyloctahydro-1H-indol-5-yl](methyl)amino}-3-methyl-6-pyridin-4-ylpyrimidin-4(3H)-one]"
12,85%,"CCN(c1nc(-c2ccncc2)cc(=O)n1C)C1CCCN(C(C)=O)CC1 (stereo not shown) [Example 56, 2-[(1-Acetylazepan-4-yl)(ethyl)amino]-3-methyl-6-pyridin-4-ylpyrimidin-4(3H)-one]"
13,93%,"CCN(c1nc(-c2ccncc2)cc(=O)n1C)C1CCN(C(C)=O)CC1 [Example 57, 2-[(1-Acetylpiperidin-4-yl)(ethyl)amino]-3-methyl-6-pyridin-4-ylpyrimidin-4(3H)-one]"
14,64%,"CC(=O)N1CCC[C@@H]1CNc1nc(-c2ccncc2)cc(=O)n1C [Example 58, 2-({[(2R)-1-Acetylpyrrolidin-2-yl]methyl}amino)-3-methyl-6-pyridin-4-ylpyrimidin-4(3H)-one]"
15,37%,"CC(=O)N1CCC(CNc2nc(-c3ccncc3)cc(=O)n2C)C1 (stereo not shown) [Example 59, 2-{[(1-Acetylpyrrolidin-3-yl)methyl]amino}-3-methyl-6-pyridin-4-ylpyrimidin-4(3H)-one]"
16,77%,"CC(=O)N[C@@H]1CC[C@@H](Nc2nc(-c3ccncc3)cc(=O)n2C)C1 [Example 60, N-{(1R,3R)-3-[(1-Methyl-6-oxo-4-pyridin-4-yl-16-dihydropyrimidin-2-yl)amino]cyclopentyl} acetamide]"

row,SMILES,inhibition at 1 µM
1,"CC(=O)N1[C@@H]2CC[C@H]1CN(c1nc(-c3ccncc3)cc(=O)n1C)C2 [Example 44, 2-[(1R,5S)-3-Acetyl-38-diazabicyclo[3.2.1]oct-8-yl]-3-methyl-6-pyridin-4-ylpyrimidin-4(3H)-one]",72%

# Same assay, conditions: cell free enzyme assay; Examples 1-35
row,pIC50,SMILES
1,7.60,"Cn1c(NCCn2c(=O)ccc3ccccc32)nc(-c2ccncc2)cc1=O [Example 30, 1-{2-[(1-Methyl-6-oxo-4-pyridin-4-yl-1,6-dihydropyrimidin-2-yl)amino]ethyl} quinolin-2(1H)-one]"
2,7.52,"CN(c1nc(-c2ccncc2)cc(=O)n1C)[C@@H]1CC[C@H]2N(C(=O)OC(C)(C)C)CC[C@@]2(C)C1 [Example 31, tert-butyl (3aS,5R,7aR)-3a-Methyl-5-[methyl(1-methyl-6-oxo-4-pyridin-4-yl-1,6-dihydropyrimidin-2-yl)amino]octahydro-1H-indole-1-carboxylate]"
3,7.15,"Cn1c(NC[C@H]2CCCN2C(=O)OC(C)(C)C)nc(-c2ccncc2)cc1=O [Example 32, tert-butyl (2R)-2-{[(1-Methyl-6-oxo-4-pyridin-4-yl-1,6-dihydropyrimidin-2-yl)amino]methyl} pyrrolidine-1-carboxylate]"
4,7.11,"Cn1c(N[C@@H]2CN(C(=O)OC(C)(C)C)C[C@@H]2F)nc(-c2ccncc2)cc1=O [Example 33, tert-butyl (3S,4R)-3-Fluoro-4-[(1-methyl-6-oxo-4-pyridin-4-yl-1,6-dihydropyrimidin-2-yl)amino]pyrrolidine-1-carboxylate]"
5,6.95,"Cn1c(NCC2CCN(C(=O)OC(C)(C)C)C2)nc(-c2ccncc2)cc1=O (stereo not shown) [Example 34, tert-butyl 3-{[(1-Methyl-6-oxo-4-pyridin-4-yl-1,6-dihydropyrimidin-2-yl)amino]methyl} pyrrolidine-1-carboxylate]"
6,6.77,"Cn1c(NCC2CCCCN2C(=O)OC(C)(C)C)nc(-c2ccncc2)cc1=O (stereo not shown) [Example 35, tert-butyl 2-{[(1-Methyl-6-oxo-4-pyridin-4-yl-1,6-dihydropyrimidin-2-yl)amino]methyl} piperidine-1-carboxylate]"

# Same assay, conditions: cell free enzyme assay; Examples 62-155
row,pIC50,SMILES
1,7.11,"Cn1c(NC2CCN(C(=O)c3ccccc3)C2)nc(-c2ccncc2)cc1=O (stereo not shown) [Example 62, 2-[(1-Benzoylpyrrolidin-3-yl)amino]-3-methyl-6-pyridin-4-ylpyrimidin-4(3H)-one]"
2,7.91,"Cn1c(NC2CCCN(C(=O)c3ccccc3)CC2)nc(-c2ccncc2)cc1=O (stereo not shown) [Example 63, 2-[(1-Benzoylazepan-4-yl)amino]-3-methyl-6-pyridin-4-ylpyrimidin-4(3H)-one]"
3,6.44,"Cn1c(NC2CN(C(=O)c3ccccc3)C2)nc(-c2ccncc2)cc1=O [Example 64, 2-[(1-Benzoylazetidin-3-yl)amino]-3-methyl-6-pyridin-4-ylpyrimidin-4(3H)-one]"
4,6.69,"Cn1c(NC2CCN(C(=O)c3ccccc3)CC2)nc(-c2ccncc2)cc1=O [Example 65, 2-[(1-Benzoylpiperidin-4-yl)amino]-3-methyl-6-pyridin-4-ylpyrimidin-4(3H)-one]"
5,6.00,"Cn1c(NC2CCCN(C(=O)c3ccccc3)C2)nc(-c2ccncc2)cc1=O (stereo not shown) [Example 66, 2-[(1-Benzoylpiperidin-3-yl)amino]-3-methyl-6-pyridin-4-ylpyrimidin-4(3H)-one]"
6,8.70,"Cn1c(N[C@H]2[C@@H]3CN(C(=O)c4ccccc4)C[C@@H]32)nc(-c2ccncc2)cc1=O [Example 67, 2-{[(1R,5S,6s)-3-Benzoyl-3-azabicyclo[3.1.0]hex-6-yl]amino}-3-methyl-6-pyridin-4-ylpyrimidin-4(3H)-one]"
7,7.25,"Cn1c(N[C@@H]2CN(C(=O)c3ccccc3)C[C@@H]2F)nc(-c2ccncc2)cc1=O [Example 68, 2-{[(3R,4S)-1-Benzoyl-4-fluoropyrrolidin-3-yl]amino}-3-methyl-6-pyridin-4-ylpyrimidin-4(3H)-one]"
8,7.02,"CCN(c1nc(-c2ccncc2)cc(=O)n1C)C1CCN(C(=O)c2ccccc2)C1 (stereo not shown) [Example 69, 2-[(1-Benzoylpyrrolidin-3-yl)(ethyl)amino]-3-methyl-6-pyridin-4-ylpyrimidin-4(3H)-one]"
9,6.77,"CN(c1nc(-c2ccncc2)cc(=O)n1C)C1CCN(C(=O)c2ccccc2)C1 (stereo not shown) [Example 70, 2-[(1-Benzoylpyrrolidin-3-yl)(methyl)amino]-3-methyl-6-pyridin-4-ylpyrimidin-4(3H)-one]"
10,7.44,"CCN(c1nc(-c2ccncc2)cc(=O)n1C)C1CCCN(C(=O)c2ccccc2)CC1 (stereo not shown) [Example 71, 2-[(1-Benzoylazepan-4-yl)(ethyl)amino]-3-methyl-6-pyridin-4-ylpyrimidin-4(3H)-one]"
11,7.21,"CN(c1nc(-c2ccncc2)cc(=O)n1C)C1CCCN(C(=O)c2ccccc2)CC1 (stereo not shown) [Example 72, 2-[(1-Benzoylazepan-4-yl)(methyl)amino]-3-methyl-6-pyridin-4-ylpyrimidin-4(3H)-one]"
